Source: patent publication US20240024273A1, “TOPICAL ADMINISTRATION OF 2-(DIETHYLAMINO)ETHYL 2-(4-ISOBUTYLPHENYL)PROPRIONATE FOR TREATMENT OF DISEASES” (TECHFIELDS PHARMA CO., LTD., priority 2020, published 2024)

System: Mild to Moderate Osteoarthritis of the Knee
Assay: Phase 2 study: WOMAC (VAS) pain subscale score, target knee
Type: in vivo, human
Details: for Change of WOMAC pain score from baseline (±SEM) / Percentage of improvement from baseline, WOMAC pain score: all patients taken as active
Excerpt: This is a Phase 2, multicenter, randomized, double blind (within dose), placebo controlled, parallel group, proof of concept, and dose range finding study to evaluate the efficacy, safety, and PK of 2-(diethylamino)ethyl 2-(4-isobutylphenyl)propionate hydrochloride spray in adult subjects with clinically symptomatic mild to moderate OA of the knee. For subjects with bilateral knee pain, both knees will be treated, but the most symptomatic knee (i.e., the most painful knee as measured by the Western Ontario and McMaster University Osteoarthritis Index [WOMAC® 3.1] pain subscale score at Screening) will be designated as the target knee for efficacy analyses. For subjects with unilateral knee pain, only the symptomatic (target) knee will be treated.
After a Screening Period of up to 3 weeks and radiographic evaluation of the target knee joint space, a subject will be randomly assigned to 1 of 3 treatment groups in a 1:1:1 ratio with a 2:1 ratio of active:placebo within each treatment group (ie, 2 subjects to active treatment and 1 subject to placebo): • Group A: 8.75 mg 2-(diethylamino)ethyl 2-(4-isobutylphenyl)propionate/knee (2 sprays/knee, one spray to the medial surface and one spray to the lateral surface of the knee), twice daily (BID, approximately every 12 hours; n=50) or placebo (2 sprays/knee), BID (approximately every 12 hours; n=25) for a total of 4 sprays per knee per day; • Group B: 17.5 mg 2-(diethylamino)ethyl 2-(4-isobutylphenyl)propionate/knee (4 sprays/knee, one spray to the medial surface and one spray to the lateral surface of the knee, and one spray to front and one spray to the back of the knee), BID (approximately every 12 hours; n=50) or placebo (4 sprays/knee), BID (approximately every 12 hours; n=25) for a total of 8 sprays per knee per day; • Group C: 35 mg 2-(diethylamino)ethyl 2-(4-isobutylphenyl)propionate/knee (8 sprays/knee, each spray is to be applied to a different non-overlapping area around the knee, and the areas are to be uniformly distributed around the knee), BID (approximately every 12 hours; n=50) or placebo (8 sprays/knee), BID (approximately every 12 hours; n=25) for a total of 16 sprays per knee per day.
The VAS version of the WOMAC will be used for the Primary and Secondary Efficacy Endpoints. Efficacy endpoints will be assessed at Screening and Baseline (Day 1) and at the Week 2, Week 4, Week 8, and Week 12/EOS visits.
The Primary Efficacy Endpoint is the change from Baseline in the WOMAC (VAS) pain subscale score for the target knee at […] of treatment.
3.9.2. Secondary Efficacy Endpoints: • 1. Change from Baseline in the WOMAC (VAS) pain subscale score for the target knee at 2, 4, and 8 weeks of treatment; • 2. Change from Baseline in the WOMAC (VAS) stiffness subscale scores for the target knee and WOMAC (VAS) functional ability subscale scores at 2, 4, 8, and 12 weeks of treatment; • 3. Change from Baseline in the overall WOMAC (VAS) score at 2, 4, 8, and 12 weeks of treatment.
The Primary Efficacy Endpoint is change from Baseline in the WOMAC (VAS) pain subscale score for the target knee at 4 weeks of treatment, and will be analyzed using an analysis of covariance (ANCOVA). Treatment will be included as a fixed class effect and WOMAC Baseline pain subscale score as covariates. The primary comparisons of interest will be the difference between active Group A (8.75 mg 2-(diethylamino)ethyl 2-(4-isobutylphenyl)propionate/knee) and combined placebo, active Group B (17.5 mg 2-(diethylamino)ethyl 2-(4-isobutylphenyl)propionate/knee) and combined placebo, and active Group C (35 mg 2-(diethylamino)ethyl 2-(4-isobutylphenyl)propionate/knee) and combined placebo. […]

[1] = 8.75 mg/knee (BID), Follow up (week 13, day 91)
[2] = 8.75 mg/knee (BID), Week 2 (day 14)
[3] = 8.75 mg/knee (BID), Week 4 (day 28)
[4] = 8.75 mg/knee (BID), Week 8 (day 56)
[5] = 8.75 mg/knee (BID), Week 12 (day 84)
[6] = 17.5 mg/knee (BID), Follow up (week 13, day 91)
[7] = 17.5 mg/knee (BID), Week 2 (day 14)
[8] = 17.5 mg/knee (BID), Week 4 (day 28)
[9] = 17.5 mg/knee (BID), Week 8 (day 56)
[10] = 17.5 mg/knee (BID), Week 12 (day 84)
[11] = 35 mg/knee (BID), Follow up (week 13, day 91)
[12] = 35 mg/knee (BID), Week 2 (day 14)
[13] = 35 mg/knee (BID), Week 4 (day 28)
[14] = 35 mg/knee (BID), Week 8 (day 56)
[15] = 35 mg/knee (BID), Week 12 (day 84)

In the case of CCN(CC)CCOC(=O)C(C)c1ccc(CC(C)C)cc1 (stereo not drawn) [2-(diethylamino)ethyl 2-(4-isobutylphenyl)propionate], the “Change of WOMAC pain score from baseline (±SEM), adjusted by […] of the testing drug amount” value [1] is reported as −34.5(±5.6) mm, the “Percentage of improvement from baseline, WOMAC pain score, adjusted by […] of the testing drug amount” value (“Percentage … of the testing drug amount” for short) [1] is reported as −57.6% and the “Change of WOMAC pain score from baseline (±SEM)” value [1] is reported as −20.1(±3.25) mm. For the same molecule, the “Percentage of improvement from baseline, WOMAC pain score” value [1] was −33.6%, the “Change of WOMAC pain score from baseline (±SEM), adjusted by […] of the testing drug amount” value [2] was −19.2(±4.1) mm and the “Percentage … of the testing drug amount” value [2] was −32.1%. The “Change of WOMAC pain score from baseline (±SEM)” value [2] was −11.2(±2.39) mm, the “Percentage of improvement from baseline, WOMAC pain score” value [2] was −18.7% and the “Change of WOMAC pain score from baseline (±SEM), adjusted by […] of the testing drug amount” value [3] was −29.2(±4.8) mm. For the same molecule, the “Percentage … of the testing drug amount” value [3] was −48.7%, the “Change of WOMAC pain score from baseline (±SEM)” value [3] was −17.0(±2.79) mm and the “Percentage of improvement from baseline, WOMAC pain score” value [3] was −28.4%. The “Change of WOMAC pain score from baseline (±SEM), adjusted by […] of the testing drug amount” value [4] was −36.7(±4.8) mm, the “Percentage … of the testing drug amount” value [4] was −61.4% and the “Change of WOMAC pain score from baseline (±SEM)” value [4] was −21.4(±2.81) mm. For the same molecule, the “Percentage of improvement from baseline, WOMAC pain score” value [4] was −35.8%, the “Change of WOMAC pain score from baseline (±SEM), adjusted by […] of the testing drug amount” value [5] was −37.0(±5.4) mm and the “Percentage … of the testing drug amount” value [5] was −61.9%. For the same molecule, the “Change of WOMAC pain score from baseline (±SEM)” value [5] was −21.6(±3.13) mm, the “Percentage of improvement from baseline, WOMAC pain score” value [5] was −36.1% and the “Change of WOMAC pain score from baseline (±SEM), adjusted by […] of the testing drug amount” value [6] was −37.9(±5.2) mm. For the same molecule, the “Percentage … of the testing drug amount” value [6] was −62.1%, the “Change of WOMAC pain score from baseline (±SEM)” value [6] was −22.1(±3.01) mm and the “Percentage of improvement from baseline, WOMAC pain score” value [6] was −36.2%. The “Change of WOMAC pain score from baseline (±SEM), adjusted by […] of the testing drug amount” value [7] was −25.7(±3.7) mm, the “Percentage … of the testing drug amount” value [7] was −42.2% and the “Change of WOMAC pain score from baseline (±SEM)” value [7] was −15.0(±2.18) mm. The “Percentage of improvement from baseline, WOMAC pain score” value [7] was −24.6%, the “Change of WOMAC pain score from baseline (±SEM), adjusted by […] of the testing drug amount” value [8] was −35.2(±4.8) mm and the “Percentage … of the testing drug amount” value [8] was −57.6%. For the same molecule, the “Change of WOMAC pain score from baseline (±SEM)” value [8] was −20.5(±2.79) mm, the “Percentage of improvement from baseline, WOMAC pain score” value [8] was −33.6% and the “Change of WOMAC pain score from baseline (±SEM), adjusted by […] of the testing drug amount” value [9] was −43.1(±4.9) mm. For the same molecule, the “Percentage … of the testing drug amount” value [9] was −70.5%, the “Change of WOMAC pain score from baseline (±SEM)” value [9] was −25.1(±2.88) mm and the “Percentage of improvement from baseline, WOMAC pain score” value [9] was −41.1%. For the same molecule, the “Change of WOMAC pain score from baseline (±SEM), adjusted by […] of the testing drug amount” value [10] was −45.5(±5.0) mm, the “Percentage … of the testing drug amount” value [10] was −74.4% and the “Change of WOMAC pain score from baseline (±SEM)” value [10] was −26.5(±2.94) mm. For the same molecule, the “Percentage of improvement from baseline, WOMAC pain score” value [10] was −43.4%, the “Change of WOMAC pain score from baseline (±SEM), adjusted by […] of the testing drug amount” value [11] was −41.2(±5.3) mm and the “Percentage … of the testing drug amount” value [11] was −69.5%. For the same molecule, the “Change of WOMAC pain score from baseline (±SEM)” value [11] was −24.0(±3.09) mm, the “Percentage of improvement from baseline, WOMAC pain score” value [11] was −40.5% and the “Change of WOMAC pain score from baseline (±SEM), adjusted by […] of the testing drug amount” value [12] was −21.6(±4.0) mm. The “Percentage … of the testing drug amount” value [12] was −36.5%, the “Change of WOMAC pain score from baseline (±SEM)” value [12] was −12.6(±2.33) mm and the “Percentage of improvement from baseline, WOMAC pain score” value [12] was −21.3%. The “Change of WOMAC pain score from baseline (±SEM), adjusted by […] of the testing drug amount” value [13] was −30.4(±4.4) mm, the “Percentage … of the testing drug amount” value [13] was −51.2% and the “Change of WOMAC pain score from baseline (±SEM)” value [13] was −17.7(±2.54) mm. For the same molecule, the “Percentage of improvement from baseline, WOMAC pain score” value [13] was −29.9%, the “Change of WOMAC pain score from baseline (±SEM), adjusted by […] of the testing drug amount” value [14] was −38.1(±5.1) mm and the “Percentage … of the testing drug amount” value [14] was −64.3%. The “Change of WOMAC pain score from baseline (±SEM)” value [14] was −22.2(±2.97) mm, the “Percentage of improvement from baseline, WOMAC pain score” value [14] was −37.5% and the “Change of WOMAC pain score from baseline (±SEM), adjusted by […] of the testing drug amount” value [15] was −43.6(±5.2) mm. The “Percentage … of the testing drug amount” value [15] was −73.6%, the “Change of WOMAC pain score from baseline (±SEM)” value [15] was −25.4(±3.04) mm and the “Percentage of improvement from baseline, WOMAC pain score” value [15] was −42.9%.
